Laboratory results from patent US20130209543A1, “ENHANCED TREATMENT REGIMENS USING MTOR INHIBITORS” (Intellikine LLC, priority 2011, published 2013).

Experiment: Phase I clinical trial: grade 3 or greater treatment-emergent adverse events (Table 9)
Format: in vivo
Experimental: Adult patients with histologically confirmed advanced solid tumors were enrolled in a 3+3 dose escalation Phase I study evaluating 3 intermittent schedules of administration for compound A: QW (once weekly), QD×3d QW (3 days on 4 days off), and QD×5d QW (5 days on 2 days off), in comparison with daily dosing (QD). Safety, maximum tolerated dose (MTD), pharmacokinetics (PK) and preliminary antitumor activity were evaluated.
Pharmacodynamic (PD) endpoints were evaluated in surrogate (peripheral blood cells [PBCs], skin) and tumor tissues for the phosphorylation of TORC1-dependent markers (4EBP1/S6), and TORC2-dependent markers (AKT/PRAS40). 50 patients were treated in 3 intermittent dosing regimens; 21 in 6 cohorts ranging 7-40 mg QW, 20 in 5 cohorts ranging 6-20 mg QD×3d QW, and 9 in 3 cohorts ranging 7-13 mg QD×5d QW. […] The MTD for intermittent dosing was not reached. All adverse events (AEs) reported were reversible. The most common (≧20%, n=35) AEs considered possibly related to compound A reported in all 3 dosing regimens included nausea (51%), hyperglycemia (37%), mucosal inflammation (29%), rash (23%), asthenia (23%), vomiting (26%), and diarrhea (20%). The majority of AEs considered possibly related to compound A in any regimen were Grade 1 or 2. The only reported Grade≧3 AE (≧5%) possibly related to compound A in 3 regimens was lymphopenia (6%). Tables 4-9 show summaries of observed adverse events for various treatment regimens of the invention.

CC(C)n1nc(-c2ccc3oc(N)nc3c2)c2c(N)ncnc21 [compound A]
1 (2%): Abdominal pain upper, Grade 3 or greater TEAE (Total, N = 60) | Anaemia, grade 3 or greater TEAE (Total, N = 60) | Aspartate aminotransferase increased, Grade 3 or greater TEAE (Total, N = 60) | Asthenia, grade 3 or greater TEAE (Total, N = 60) | Catheter related infection, Grade 3 or greater TEAE (Total, N = 60) | Cellulitis, Grade 3 or greater TEAE (Total, N = 60) | Disease progression, grade 3 or greater TEAE (Total, N = 60) | Enterocutaneous fistula, Grade 3 or greater TEAE (Total, N = 60) | Gastroenteritis, Grade 3 or greater TEAE (Total, N = 60) | Pancreatitis acute, Grade 3 or greater TEAE (Total, N = 60) | Pleural effusion, Grade 3 or greater TEAE (Total, N = 60) | Rash macular, Grade 3 or greater TEAE (Total, N = 60) | Somnolence, Grade 3 or greater TEAE (Total, N = 60) | Urinary tract infection, Grade 3 or greater TEAE (Total, N = 60)
5 (8%): Hyperglycaemia, grade 3 or greater TEAE (Total, N = 60)
0 (0%): Hyperglycaemia, grade 3 or greater TEAE (Total QDx5d QW, N = 6) | Hypokalaemia, grade 3 or greater TEAE (Total QDx5d QW, N = 6) | Hyponatraemia, grade 3 or greater TEAE (Total QDx5d QW, N = 6) | Lymphopenia, grade 3 or greater TEAE (Total QDx5d QW, N = 6) | Pancreatitis acute, Grade 3 or greater TEAE (Total QDx5d QW, N = 6) | Patients Reporting at Least One Grade 3 or Greater TEAE (Total QDx5d QW, N = 6) | Pleural effusion, Grade 3 or greater TEAE (Total QDx5d QW, N = 6) | Pruritus, grade 3 or greater TEAE (Total QDx5d QW, N = 6) | Rash macular, Grade 3 or greater TEAE (Total QDx5d QW, N = 6) | Rash, grade 3 or greater TEAE (Total QDx5d QW, N = 6) | Somnolence, Grade 3 or greater TEAE (Total QDx5d QW, N = 6) | Thrombocytopenia, grade 3 or greater TEAE (Total QDx5d QW, N = 6) | Urinary tract infection, Grade 3 or greater TEAE (Total QDx5d QW, N = 6) | Abdominal pain upper, Grade 3 or greater TEAE (Total QW Dosing, N = 15) | Anaemia, grade 3 or greater TEAE (Total QW Dosing, N = 15) | Asthenia, grade 3 or greater TEAE (Total QW Dosing, N = 15) | Catheter related infection, Grade 3 or greater TEAE (Total QW Dosing, N = 15) | Cellulitis, Grade 3 or greater TEAE (Total QW Dosing, N = 15) | Disease progression, grade 3 or greater TEAE (Total QW Dosing, N = 15) | Enterocutaneous fistula, Grade 3 or greater TEAE (Total QW Dosing, N = 15) | Gastroenteritis, Grade 3 or greater TEAE (Total QW Dosing, N = 15) | Hyperglycaemia, grade 3 or greater TEAE (Total QW Dosing, N = 15) | Hypokalaemia, grade 3 or greater TEAE (Total QW Dosing, N = 15) | Hyponatraemia, grade 3 or greater TEAE (Total QW Dosing, N = 15) | Pancreatitis acute, Grade 3 or greater TEAE (Total QW Dosing, N = 15) | Pleural effusion, Grade 3 or greater TEAE (Total QW Dosing, N = 15) | Pruritus, grade 3 or greater TEAE (Total QW Dosing, N = 15) | Rash macular, Grade 3 or greater TEAE (Total QW Dosing, N = 15) | Rash, grade 3 or greater TEAE (Total QW Dosing, N = 15) | Somnolence, Grade 3 or greater TEAE (Total QW Dosing, N = 15) | Thrombocytopenia, grade 3 or greater TEAE (Total QW Dosing, N = 15) | Urinary tract infection, Grade 3 or greater TEAE (Total QW Dosing, N = 15)
1 (7%): Aspartate aminotransferase increased, Grade 3 or greater TEAE (Total QW Dosing, N = 15) | Diarrhoea, grade 3 or greater TEAE (Total QW Dosing, N = 15) | Gamma-glutamyltransferase increased, Grade 3 or greater TEAE (Total QW Dosing, N = 15) | Lymphopenia, grade 3 or greater TEAE (Total QW Dosing, N = 15)
7 (12%): Rash, grade 3 or greater TEAE (Total, N = 60)
3 (5%): Diarrhoea, grade 3 or greater TEAE (Total, N = 60)
3 (20%): Patients Reporting at Least One Grade 3 or Greater TEAE (Total QW Dosing, N = 15)
2 (3%): Gamma-glutamyltransferase increased, Grade 3 or greater TEAE (Total, N = 60) | Hypokalaemia, grade 3 or greater TEAE (Total, N = 60) | Hyponatraemia, grade 3 or greater TEAE (Total, N = 60) | Pruritus, grade 3 or greater TEAE (Total, N = 60) | Thrombocytopenia, grade 3 or greater TEAE (Total, N = 60)
4 (7%): Lymphopenia, grade 3 or greater TEAE (Total, N = 60)
